According to ChEMBL document CHEMBL1139093, “1,3-diaminopropan-2-ol sulfonamides as potent and selective inhibitors of the glycine transporter type 1” (Bioorg Med Chem Lett, 2007):
pIC50: −log10 of the molar value.

Assays:
[1] = biological target: T1, Sodium- and chloride-dependent glycine transporter 1 (Homo sapiens, UniProt P48067)
T1 sequence (P48067 whole entry): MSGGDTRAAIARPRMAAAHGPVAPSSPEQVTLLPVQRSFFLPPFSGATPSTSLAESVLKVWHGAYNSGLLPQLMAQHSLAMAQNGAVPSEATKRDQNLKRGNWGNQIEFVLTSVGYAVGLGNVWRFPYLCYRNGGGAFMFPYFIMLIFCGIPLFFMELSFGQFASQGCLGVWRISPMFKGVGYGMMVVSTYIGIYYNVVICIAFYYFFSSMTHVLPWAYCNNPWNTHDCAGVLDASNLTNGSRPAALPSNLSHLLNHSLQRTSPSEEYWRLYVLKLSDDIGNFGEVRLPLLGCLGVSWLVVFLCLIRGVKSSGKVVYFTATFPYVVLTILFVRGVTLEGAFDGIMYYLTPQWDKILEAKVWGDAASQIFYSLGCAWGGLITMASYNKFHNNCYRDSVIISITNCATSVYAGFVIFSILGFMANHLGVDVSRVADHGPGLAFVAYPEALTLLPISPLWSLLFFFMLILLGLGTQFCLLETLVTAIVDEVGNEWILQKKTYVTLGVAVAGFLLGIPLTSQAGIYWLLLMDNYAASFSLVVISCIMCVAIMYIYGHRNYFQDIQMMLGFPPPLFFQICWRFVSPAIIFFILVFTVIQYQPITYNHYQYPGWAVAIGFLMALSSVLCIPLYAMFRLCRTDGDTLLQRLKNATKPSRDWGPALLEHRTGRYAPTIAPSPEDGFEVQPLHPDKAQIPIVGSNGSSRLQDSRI
Description: (§1) Inhibition of [3H]glycine uptake in human GlyT1c expressed in HEK293 cells

Rattus norvegicus [2] = assay: Bioavailability in rat at 5 mg/kg, sc; type: ADME, organism-based; settings: in vivo
[3] = Half life in rat at 1 mg/kg, iv; type: ADME, organism-based; parameters: dose 1 mg/kg, route intravenous; settings: in vivo
[4] = Half life in rat at 5 mg/kg, sc; type: ADME, organism-based; parameters: dose 5 mg/kg, route subcutaneous; settings: in vivo
[5] = Cmax in rat at 5 mg/kg, sc; type: ADME, organism-based; parameters: dose 5 mg/kg, route subcutaneous; settings: in vivo
Rattus norvegicus [6] = assay: AUC (0 to infinity) in rat at 5 mg/kg, sc; type: ADME, organism-based, Plasma; parameters: time infinity, dose 5 mg/kg, route subcutaneous; settings: in vivo
[7] = Oral bioavailability in rat at 5 mg/kg; type: ADME, organism-based; settings: in vivo
Brain = assay: Drug level in rat brain at 5 mg/kg, sc; type: ADME, organism-based; parameters: dose 5 mg/kg, route subcutaneous; settings: in vivo
Liver microsomes [8] = assay: Intrinsic clearance in human liver microsome; type: ADME
[9] = Plasma clearance in rat at 1 mg/kg, iv; type: ADME, organism-based; parameters: dose 1 mg/kg, route intravenous
[10] = AUC (0 to infinity) in rat brain at 1 mg/kg, iv; type: ADME, organism-based; parameters: time infinity, dose 1 mg/kg, route intravenous
Cytochrome P450 2D6 = Cytochrome P450 2D6 (Homo sapiens, UniProt P10635); assay: Binding affinity to CYP2D6; type: ADME
Sequence of Cytochrome P450 2D6 (P10635 whole entry): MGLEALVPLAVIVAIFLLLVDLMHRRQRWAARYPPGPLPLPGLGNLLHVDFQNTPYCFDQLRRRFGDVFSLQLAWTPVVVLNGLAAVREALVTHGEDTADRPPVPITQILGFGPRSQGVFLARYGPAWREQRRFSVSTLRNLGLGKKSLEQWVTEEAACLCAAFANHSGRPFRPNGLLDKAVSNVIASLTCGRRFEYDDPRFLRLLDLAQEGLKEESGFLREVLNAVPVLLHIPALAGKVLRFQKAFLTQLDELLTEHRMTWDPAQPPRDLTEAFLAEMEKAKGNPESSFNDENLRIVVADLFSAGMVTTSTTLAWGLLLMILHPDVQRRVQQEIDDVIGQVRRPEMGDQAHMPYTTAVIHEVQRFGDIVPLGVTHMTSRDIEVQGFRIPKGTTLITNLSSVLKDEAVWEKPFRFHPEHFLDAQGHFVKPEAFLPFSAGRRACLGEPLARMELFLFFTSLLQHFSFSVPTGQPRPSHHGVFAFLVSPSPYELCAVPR

Liver microsomes [11] = assay: Intrinsic clearance in rat liver microsome; type: ADME
Rattus norvegicus [12] = assay: AUC (0 to infinity) in rat plasma at 1 mg/kg, iv; type: ADME, organism-based; parameters: time infinity, dose 1 mg/kg, route intravenous; settings: in vivo
[13] = biological target: T1, Sodium- and chloride-dependent glycine transporter 1; settings: hek293
Description: as §1

Row | pIC50 [1] | Compound | other results
1 | 5.50 | O=S(=O)(NC[C@H](O)CN1CCCC1)c1cccc2ccccc12 | 
2 | 4.90 | CC1CCCN1C[C@H](O)CNS(=O)(=O)c1cccc2ccccc12 (stereo partly drawn) | 
3 | 6.00 | CCCN(C[C@@H](O)CNS(=O)(=O)c1cccc2ccccc12)C(C)(C)C | 
4 | 6.00 | CCC1CCC(C)N(C[C@@H](O)CNS(=O)(=O)c2cccc3ccccc23)C1 (stereo partly drawn) | 
5 | 5.40 | CC1CC(C)N(C[C@@H](O)CNS(=O)(=O)c2ccc3ccccc3c2)C1 (stereo partly drawn) | 
6 | 5.60 | CC1CC(C)N(C[C@@H](O)CNS(=O)(=O)c2cccc(Cl)c2Cl)C1 (stereo partly drawn) | 
7 | 5.50 | CC1CC(C)N(C[C@@H](O)CNS(=O)(=O)c2cc(Cl)sc2Cl)C1 (stereo partly drawn) | 
8 | 5.50 | Cc1cc(S(=O)(=O)NC[C@H](O)CN2CC(C)CC2C)c(C)cc1Cl (stereo partly drawn) | 
9 | 5.50 | CCc1cc(Br)ccc1S(=O)(=O)NC[C@H](O)CN1CC(C)CC1C (stereo partly drawn) | 
10 | 5.10 | CC1CCC(C)N1C[C@H](O)CNS(=O)(=O)c1cccc2ccccc12 (stereo partly drawn) | 
11 |  | CC[C@H]1CCCCN1C[C@@H](O)CNS(=O)(=O)c1cccc2ccccc12 | F (Rattus norvegicus [2]): 95%; half-life [3]: 60 min; half-life [4]: 54 min; Cmax [5]: 564 ng/mL; AUC (Rattus norvegicus [6]): 1731 ng·h/mL; bioavailability [7]: 4%; Drug uptake (Brain): 564 ng/mL; clearance (Liver microsomes [8]): 8 mL/min/g; clearance [9]: 18 mL/min/kg; AUC(0-inf) [10]: 587 ng·h/mL; Activity (Cytochrome P450 2D6): 1.2 µM; clearance (Liver microsomes [11]): 8 mL/min/g; AUC (Rattus norvegicus [12]): 952 ng·h/mL
12 | 5.40 | CC1CCCN(C[C@@H](O)CNS(=O)(=O)c2cccc3ccccc23)C1 (stereo partly drawn) | 
13 | 5.90 | CCCN(C[C@@H](O)CNS(=O)(=O)c1cccc2ccccc12)C(C)CC (stereo partly drawn) | 
14 | 6.50 | CC1CCCCN1C[C@@H](O)CNS(=O)(=O)c1cccc2ccccc12 (stereo partly drawn) | 
15 | 6.10 | CC1CCC(C)N1C[C@@H](O)CNS(=O)(=O)c1cccc2ccccc12 (stereo partly drawn) | 
16 | 6.00 | CC1CCCN1C[C@@H](O)CNS(=O)(=O)c1cccc2ccccc12 (stereo partly drawn) | 

Row | pIC50 [1] | Compound | other results
17 | 5.50 | O=S(=O)(NC[C@H](O)CN1CCCCC1)c1cccc2ccccc12 | 
18 |  | O=S(=O)(NC[C@H](O)CN1CCCC1C1CCCCC1)c1cccc2ccccc12 (single isomer, unassigned; isomer A) | Log IC50 [13]: -5.2
19 | 5.10 | CC(C)(C)C1CCCN1C[C@@H](O)CNS(=O)(=O)c1cccc2ccccc12 (single isomer, unassigned; isomer A) | 
20 | 5.90 | CCC1CCCN1C[C@@H](O)CNS(=O)(=O)c1cccc2ccccc12 (single isomer, unassigned; isomer A) | 
21 | 5.40 | CC(C)C1CCCCN1C[C@@H](O)CNS(=O)(=O)c1cccc2ccccc12 (single isomer, unassigned; isomer A) | 
22 | 5.20 | CC(C)CC1CCCN1C[C@@H](O)CNS(=O)(=O)c1cccc2ccccc12 (single isomer, unassigned; isomer A) | 
23 | 6.00 | CC(C)C1CCCN1C[C@@H](O)CNS(=O)(=O)c1cccc2ccccc12 (single isomer, unassigned; isomer A) | 
24 | 5.20 | O=S(=O)(NC[C@H](O)CN1CCCC1C1CCCCC1)c1cccc2ccccc12 (single isomer, unassigned; isomer B) | 
25 | 6.70 | CC(C)(C)C1CCCN1C[C@@H](O)CNS(=O)(=O)c1cccc2ccccc12 (single isomer, unassigned; isomer B) | 
26 | 6.30 | O=S(=O)(NC[C@H](O)CN1CCCC1C1CC1)c1cccc2ccccc12 (single isomer, unassigned; isomer B) | 
27 | 5.80 | CCC1CCCN1C[C@@H](O)CNS(=O)(=O)c1cccc2ccccc12 (single isomer, unassigned; isomer B) | 
28 | 5.60 | CC(C)CC1CCCN1C[C@@H](O)CNS(=O)(=O)c1cccc2ccccc12 (single isomer, unassigned; isomer B) | 
29 | 6.70 | CC(C)C1CCCN1C[C@@H](O)CNS(=O)(=O)c1cccc2ccccc12 (single isomer, unassigned; isomer B) | 
30 | 5.80 | O=S(=O)(NC[C@H](O)CN1CCCC1C1CC1)c1cccc2ccccc12 (stereo in doubt) | 
31 | 6.20 | CC(C)C1CCCCN1C[C@@H](O)CNS(=O)(=O)c1cccc2ccccc12 (stereo in doubt) | 
